Results on twelve molecules are retold here after patent US12528767B2, “HDAC6 inhibitors and uses thereof” (Eikonizo Therapeutics, Inc., priority 2019, dated 2026).

For one assay, the target named is Full length Human HDAC1 (Homo sapiens, UniProt Q13547).
In a further assay the target is Full length Human HDAC2 (Homo sapiens, UniProt Q92769).
Assay [1] addresses Full length Human HDAC3 co-expressed with Human NCOR2 (Homo sapiens, UniProt O15379).
The target of assay [2] is Human HDAC9 a.a. 604-1066 (Homo sapiens, UniProt Q9UKV0).
Chain of Human HDAC9 a.a. 604-1066 (Q9UKV0 604-1066 isoform Q9UKV0-5): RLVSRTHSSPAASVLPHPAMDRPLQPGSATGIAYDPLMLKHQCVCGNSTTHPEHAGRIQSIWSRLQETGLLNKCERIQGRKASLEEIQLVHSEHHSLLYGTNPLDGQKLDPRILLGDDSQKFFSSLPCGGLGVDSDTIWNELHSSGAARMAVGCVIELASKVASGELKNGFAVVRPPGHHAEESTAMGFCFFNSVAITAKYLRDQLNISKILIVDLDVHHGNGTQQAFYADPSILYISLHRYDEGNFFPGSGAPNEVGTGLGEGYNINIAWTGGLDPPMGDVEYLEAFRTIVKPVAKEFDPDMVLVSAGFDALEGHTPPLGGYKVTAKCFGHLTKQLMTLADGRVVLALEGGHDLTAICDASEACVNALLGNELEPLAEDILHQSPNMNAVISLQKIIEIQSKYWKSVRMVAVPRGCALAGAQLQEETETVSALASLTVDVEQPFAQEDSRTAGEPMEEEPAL
Another assay deals with T1, Full length Human HDAC11 (Homo sapiens, UniProt Q96DB2).
T1 sequence (Q96DB2 1-347): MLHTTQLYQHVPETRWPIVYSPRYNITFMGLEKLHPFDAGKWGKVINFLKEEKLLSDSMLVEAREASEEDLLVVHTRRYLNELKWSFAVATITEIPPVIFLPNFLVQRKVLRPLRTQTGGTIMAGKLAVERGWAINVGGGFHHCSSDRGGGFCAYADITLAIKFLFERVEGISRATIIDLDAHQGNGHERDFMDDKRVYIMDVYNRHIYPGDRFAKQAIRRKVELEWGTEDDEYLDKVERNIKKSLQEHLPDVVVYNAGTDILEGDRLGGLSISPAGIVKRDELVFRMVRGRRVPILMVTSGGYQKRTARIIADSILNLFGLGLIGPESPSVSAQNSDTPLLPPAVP

Assay [3] has as its system tubulin acetylation (acTubK40) in undifferentiated SH-SY5Y cells. As to the kind of experiment: Tubulin acetylation in cells (Western immunoblot). As to conditions: Homo sapiens, 4 hours, acetylTubulin/Tubulin ratio. The format is cell-based. Here is the method: (§1) Compound EC50 Determination for Tubulin- and Histone H3 Acetylation in Cells
(§2) Estimation of the EC50 for exemplary compounds to alter target protein acetylation in undifferentiated SH-SY5Y cells was performed using standard Western immunoblotting methods. […] SH-SY5Y cells were grown to 90% confluency on sterile cell growth plates. 10 mM compound stocks prepared in DMSO and two-fold serial dilutions were prepared from the stock and applied to cells to achieve a 12-point concentration range in cell media from an upper limit of 10 μM to a lower limit of DMSO [zero compound].
(§3) Cells were incubated under normal growth conditions (37° C., 5% CO2) in the presence of compound for 4 hours, then media was aspirated and cells were rinsed two times with 1×DPBS with calcium and magnesium warmed to 37° C. Cells were frozen directly on the plates on a bed of dry ice for 5 min, then stored at −80° C. until protein extraction.
(§4) Protein extraction was performed in RIPA buffer (50 mM Tris-HCL pH 8.0, 150 mM NaCl, 0.5% sodium deoxycholate, 0.1% sodium dodecyl sulfate, 1% NP-40) supplemented with Pierce protease inhibitor mini tables (Thermofisher cat #A32953) exactly as described by the manufacturer. After thawing the plate on a bed of wet ice for 10 minutes, lysis buffer was added to each well (e.g. 100 μL per well of a 24-well plate) and cells scraped from the bottom of each well. Lysates were then sonicated over ice (40% power, 30 pulses of 1 second on, 2 seconds off), centrifuged at 16,000 g for 10 min at 4° C., and the clarified supernatant saved. Protein concentration was determined by BCA assay and at least 3 μg prepared per lane by combining lysate supernatant aliquot with 1/3 total volume of 3× gel loading buffer containing DTT (NEB Cat. #B7703S), heating for 5 minutes at 95° C., briefly centrifuging and then loading on an SDS-PAGE gel.
(§5) Proteins were resolved on a 4-20% Tris-Glycine gel and transferred to PVDF membrane using an iBlot2 dry transfer system. The membrane was then blocked for at least 30 minutes at room temperature in TBST containing 5% milk or 5% bovine serum albumin, then incubated overnight at 4° C. with a single primary antibody from the following table:
(§6) Following primary antibody incubation, membranes were washed, incubated in secondary antibody, washed and incubated in ECL prime western blotting detection reagent (Amersham #RPN223) with membrane exposure and ECL signal capture in a LI-COR Odyssey Imaging system. […] Subsequent densitometry of immunoreactive bands was performed using the ImageStudio software and Microsoft Excel resulting in the following ratios: acetylTubulin/Tubulin and acetyl histone H3K9/histone H3. Raw ratios were uploaded to GraphPad Prism v7.0 with EC50 values modeled using the variable slope equation for log-transformed data [log(agonist) vs response in Prism].

Assay [4] relates to histone H3 acetylation (acH3K9) in undifferentiated SH-SY5Y cells. As to the kind of experiment: Histone H3 acetylation in cells (Western immunoblot). In kind it is cell-based. As to conditions: Homo sapiens, 4 hours, acetyl histone H3K9/histone H3 ratio. Here is the method: as §1, §2, §3, §4, §5, §6
A general note: A western blot detects proteins with antibodies after separation by electrophoresis.

Structures are written as SMILES.

Chain of Full length Human HDAC1 (Q13547 whole entry): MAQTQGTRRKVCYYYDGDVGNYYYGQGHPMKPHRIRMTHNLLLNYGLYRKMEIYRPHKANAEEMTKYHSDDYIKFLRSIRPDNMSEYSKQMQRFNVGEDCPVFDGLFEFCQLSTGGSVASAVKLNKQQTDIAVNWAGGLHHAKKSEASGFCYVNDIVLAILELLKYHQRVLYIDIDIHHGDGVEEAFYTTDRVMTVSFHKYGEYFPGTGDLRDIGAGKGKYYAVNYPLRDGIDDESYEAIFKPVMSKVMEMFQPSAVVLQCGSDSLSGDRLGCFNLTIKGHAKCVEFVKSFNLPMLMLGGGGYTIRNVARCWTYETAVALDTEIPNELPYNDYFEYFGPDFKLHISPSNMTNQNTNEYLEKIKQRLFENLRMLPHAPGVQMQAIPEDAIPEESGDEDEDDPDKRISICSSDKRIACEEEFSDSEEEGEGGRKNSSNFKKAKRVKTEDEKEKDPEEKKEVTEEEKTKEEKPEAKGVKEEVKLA
Chain of Full length Human HDAC2 (Q92769 whole entry): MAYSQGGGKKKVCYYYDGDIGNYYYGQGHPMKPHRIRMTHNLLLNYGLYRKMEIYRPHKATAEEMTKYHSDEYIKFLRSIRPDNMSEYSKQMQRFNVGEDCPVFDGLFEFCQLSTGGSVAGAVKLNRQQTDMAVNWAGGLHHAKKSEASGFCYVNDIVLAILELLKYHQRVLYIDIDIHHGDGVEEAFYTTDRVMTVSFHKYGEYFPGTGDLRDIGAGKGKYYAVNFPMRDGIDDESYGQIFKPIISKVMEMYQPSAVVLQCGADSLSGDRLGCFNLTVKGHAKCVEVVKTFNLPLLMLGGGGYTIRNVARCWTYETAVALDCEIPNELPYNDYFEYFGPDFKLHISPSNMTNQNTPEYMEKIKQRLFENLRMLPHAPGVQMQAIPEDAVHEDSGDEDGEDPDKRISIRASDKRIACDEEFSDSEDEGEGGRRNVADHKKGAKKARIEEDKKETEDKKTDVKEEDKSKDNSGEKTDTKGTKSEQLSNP
Chain of Full length Human HDAC3 co-expressed with Human NCOR2 (O15379 whole entry): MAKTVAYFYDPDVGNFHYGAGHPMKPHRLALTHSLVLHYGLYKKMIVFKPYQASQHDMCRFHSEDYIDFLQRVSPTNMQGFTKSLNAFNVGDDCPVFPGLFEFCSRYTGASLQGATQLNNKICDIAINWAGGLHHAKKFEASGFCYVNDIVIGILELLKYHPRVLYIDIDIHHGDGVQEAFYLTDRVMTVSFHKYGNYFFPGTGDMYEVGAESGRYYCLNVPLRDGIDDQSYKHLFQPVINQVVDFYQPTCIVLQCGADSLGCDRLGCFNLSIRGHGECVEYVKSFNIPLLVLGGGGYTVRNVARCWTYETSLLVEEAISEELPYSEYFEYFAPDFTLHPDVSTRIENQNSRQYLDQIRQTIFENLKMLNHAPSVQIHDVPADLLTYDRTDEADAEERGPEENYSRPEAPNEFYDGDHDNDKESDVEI
Chain of Full length Human HDAC3 co-expressed with Human NCOR2 (Q9Y618 395-489 partner limits assumed): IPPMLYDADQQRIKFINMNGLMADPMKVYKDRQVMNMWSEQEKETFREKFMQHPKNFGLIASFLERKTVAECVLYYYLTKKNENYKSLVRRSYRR

By IC50 is commonly meant the midpoint of a concentration-inhibition curve. The low end stands for inhibition by little substance, the high end for a need for much substance. In the case of `O=C(NO)c1ccc(CN2C[C@H]3CC[C@@H]2CO3)c(F)c1` (single isomer, unassigned) [compound 173], the IC50 at Full length Human HDAC1 lay in the range of 10 to 100 µM; against Full length Human HDAC2, 10 to 100 µM; in assay [1], 1 to 10 µM; in assay [2] it was 1 to 10 µM; against Full length Human HDAC11, 10 to 100 µM.

In general, EC50 refers to the concentration at which the effect is half-maximal. Consider `O=C(NO)c1ccc(CN2CC3CCC(C2)O3)c(F)c1` [compound 53], for which the EC50 in assay [3] is 0.2 µM; in assay [4], more than 10 µM. Besides, the IC50 at Full length Human HDAC1 was 1 to 10 µM; at Full length Human HDAC2, 10 to 100 µM; in assay [1], 1 to 10 µM; in assay [2], 0.1 to 1 µM; against Full length Human HDAC11, 10 to 100 µM.

For `O=C(NO)c1ccc(CN2CCC3(CCCCC3)C2)c(F)c1` [compound 75, 4-((2-Azaspiro[4.5]decan-2-yl)methyl)-3-fluoro-N-hydroxybenzamide], the EC50 in assay [3] was 1.4 µM; in assay [4], more than 10 µM.

Regarding `O=C(NO)c1cc(F)c2c(c1)C[C@@H]1CCCCN1C2` (single isomer, unassigned) [compound 93], the IC50 at Full length Human HDAC1 is 10 to 100 µM; on Full length Human HDAC2, 10 to 100 µM; in assay [1] it was 1 to 10 µM; in assay [2], 1 to 10 µM; against Full length Human HDAC11 it was 1 to 10 µM.

For `O=C(NO)c1ccc(CN2C[C@@H]3CC[C@H]2CO3)c(F)c1` (single isomer, unassigned) [compound 172], the IC50 against Full length Human HDAC1 was more than 100 µM; against Full length Human HDAC2, more than 100 µM; in assay [1] it was 10 to 100 µM; in assay [2] it was 10 to 100 µM; on Full length Human HDAC11, 0.001 to 0.1 µM.

Regarding `O=C(NO)c1cc(F)c2c(c1)CCN(Cc1ccccc1)C2` [compound 32], the results for the EC50 in assay [3] and in assay [4] were 0.3 µM and more than 10 µM, respectively.

Take `O=C(NO)c1cc(F)c2c(c1)CCN(CC13CC4CC(CC(C4)C1)C3)C2` [compound 34]: the results for the EC50 in assay [3] and in assay [4] were 2.1 µM and more than 10 µM, respectively. The IC50 lay within 10 to 100 µM on Full length Human HDAC1; 10 to 100 µM against Full length Human HDAC2; 1 to 10 µM in assay [1]; 10 to 100 µM in assay [2]; 1 to 10 µM against Full length Human HDAC11.

Turning to `O=C(NO)c1cc(F)c2c(c1)C[C@H]1CCCCN1C2` (single isomer, unassigned) [compound 94], the concentration for half-maximal inhibition (IC50) is more than 100 µM on Full length Human HDAC1; more than 100 µM at Full length Human HDAC2; 10 to 100 µM in assay [1]; 1 to 10 µM in assay [2]; more than 100 µM against Full length Human HDAC11.

For the molecule `O=C(NO)c1ccc2c(c1)CN1CCCCN1C2` [compound 106, N-hydroxy-1,2,3,4,6,11-hexahydropyridazino[1,2-b]phthalazine-8-carboxamide], the IC50 against Full length Human HDAC1 was 10 to 100 µM; against Full length Human HDAC2, 10 to 100 µM; in assay [1], 1 to 10 µM; in assay [2], 10 to 100 µM; against Full length Human HDAC11 it was 10 to 100 µM.

Turning to `O=C(NO)c1ccc(CN2CC3CCC2CO3)c(F)c1` (stereo not shown) [compound 58], the EC50 in assay [3] was 2.6 µM; in assay [4], 2.5 µM. Also, the IC50 is 10 to 100 µM against Full length Human HDAC1; 10 to 100 µM against Full length Human HDAC2; 1 to 10 µM in assay [1]; 1 to 10 µM in assay [2]; more than 100 µM on Full length Human HDAC11.

Consider `O=C(NO)c1cc(F)c2c(c1)CCN1CCC[C@@H]21` (single isomer, unassigned) [compound 79], for which the concentration giving a half-maximal response (EC50) in assay [3] was 0.44 µM; in assay [4], more than 10 µM. The IC50 was 1 to 10 µM at Full length Human HDAC1; 10 to 100 µM against Full length Human HDAC2; 1 to 10 µM in assay [1]; 0.1 to 1 µM in assay [2]; more than 100 µM against Full length Human HDAC11.

On to `O=C(NO)c1cc(F)c2c(c1)CCN(C1CC3(CCCCC3)C1)C2` [compound 16], for which the values for the EC50 in assay [3] and in assay [4] were 2.9 µM and more than 10 µM, respectively. Also, the IC50 on Full length Human HDAC1 was 10 to 100 µM; at Full length Human HDAC2 it was 10 to 100 µM; in assay [1], 10 to 100 µM; in assay [2], more than 100 µM; against Full length Human HDAC11, 1 to 10 µM.
